Measured values published in US5280014A, “Treatment of obesity and essential hypertension and related disorders” (Amylin Pharmaceuticals, Inc., priority 1991, dated 1994).

Tests used:
[1] = tested on: isolated incubated skeletal muscles of the rat; test: effect of amylin on glucose uptake and glycogen synthesis in isolated incubated skeletal muscle; type: cell-based
isolated adipocytes [2] = conditions: Cooper et al. 1988; cited from earlier work
[3] = tested on: isolated soleus muscle from rats; test: amylin antagonist assay: incorporation of radiolabelled glucose into glycogen in isolated soleus muscle; type: cell-based, rat
Description: Insulin was obtained as Humulin-R, 100 U/mL, recombinant human insulin (Eli Lilly, Indianapolis, Ind.). […] An antagonist assay was performed in vitro using the isolated soleus muscle from rats.
The right and left soleus muscles of 4-hour fasted rats were removed immediately after decapitation of the animals, divided in half and temporarily placed in physiological saline. Muscles were assigned to different treatment groups so that the 4 muscle pieces from each animal were evenly distributed among the 9 flasks representing the different assay conditions. […] Pharmacologically active agents were added to the 10mL of medium to result in the above stated concentrations and mixtures. […]
Dissolved glycogen was precipitated out by addition of 3 mL absolute ethanol and cooling to -20° C. overnight. […] The remaining glycogen was redissolved in water and scintillation fluid and counted for ^14 C.
From a knowledge of the specific activity of ^14 C-glucose in the 5.5 mM glucose of the incubation medium, and the total ^14 C counts remaining in the glycogen extracted from each muscle, it was possible to determine the net rate of glycogen synthesis over the final 60 minute incubation period. This was normalized per mass of muscle and expressed as μmoles of glucosyl units incorporated into glycogen per hour per gram of muscle. […]

isolated adipocytes [4] = test: formation of CO2 or triacylglycerol from glucose in isolated adipocytes; type: cell-based
normal rats = test: intravenous amylin bolus in normal rats (hyperglycemia, respiratory quotient); type: in vivo, rat
Text: The hyperglycemia is partly accounted for by an increase in hepatic (endogenous) glucose output and partly by an increased impediment in peripheral glucose disposal.

isolated adipocytes [5] = test: 2-deoxyglucose uptake in isolated adipocytes; type: cell-based
Description: (§1) In vitro studies in isolated adipocytes and cultured BC3H-1 myocytes were also conducted. […] Since 80-90% of in vivo insulin-stimulated glucose disposal represents skeletal muscle glucose uptake, an in vitro muscle cell system was also examined.

BC3H-1 myocytes = test: insulin-stimulated glucose uptake in cultured BC3H-1 myocytes; type: cell-based; conditions: 10^-8 M CGRP, all insulin concentrations, FIG. 4
Description: as §1

anaesthetised rats = test: hyperinsulinemic euglycemic glucose clamp in rats infused with insulin and CGRP; conditions: for steady-state glucose infusion rate necessary to maintain euglycemia: FIG. 2A: insulin 1.8 mU/kg/min for 210 min, CGRP 0.02 ug/kg/min added from 80-150 min; for hepatic glucose output (HGO) / suppression of hepatic glucose output (HGO): FIG. 2B clamp, insulin alone or insulin in the presence of CGRP; for suppression of hepatic glucose output (HGO): from basal 11.2±0.7 mg/kg/min; for mean steady-state glucose infusion rate: FIG. 2B: CGRP 0.02 ug/kg/min plus insulin 1.8 mU/kg/min for 75 min, then insulin alone for 130 min; for mean steady-state plasma insulin level: insulin 1.8 mU/kg/min
Text: In these experiments, the overall glucose disposal rate (GDR) equals the glucose rate plus hepatic glucose output (HGO).
In addition to stimulation of peripheral glucose disposal, another important in vivo glucoregulatory effect of insulin is to inhibit HGO.

[6] = tested on: spontaneously hypertensive (SHR) rats; conditions: continuous intravenous infusion of purified rat relaxin; single reported study; cited from earlier work
[7] = FIG. 2B protocol, last 20 min of each period

For amylin, the “reduction in the basal rate of glycogen synthesis” value ([1]; basal insulin concentration 1 uU/ml) was 30%, the “response of amylin-treated muscles to insulin” value ([1]; insulin concentration giving half-maximal stimulation in non amylin-treated muscles) was “no response to insulin” and the “insulin concentration needed to overcome the effect of amylin in muscle” value ([1]; supra-physiological level) was 1000 uU/ml. The “effect on basal or insulin-stimulated incorporation of glucose into CO2 or triglyceride” value (isolated adipocytes [2]) was “does not influence”, the “decrease of insulin-stimulated rate of glycogen synthesis” value ([3]; 20 nM amylin, 1000 μU/mL insulin) was “approximately 83%” and the “effect on basal or insulin-stimulated rates of formation of CO2 or triacyglycerol” value (isolated adipocytes [4]) was “no effect”. The persistence of hyperglycemia (normal rats; 100 μg intravenous bolus) was “persists for several hours”, the “time to hyperglycemia at diabetic levels” value (normal rats; 100 μg intravenous bolus) was 15 to 30 min and the “blood glucose level reached (hyperglycemia)” value (normal rats; 100 μg intravenous bolus, eight normal rats) was “around 200 mg/dL”. The “change in respiratory quotient (RQ)” value (normal rats; during somatostatin infusion (no endogenous insulin release), fasted animal) was “no change in RQ” and the “change in respiratory quotient (RQ)” value (normal rats; somatostatin absent, insulin allowed to increase) was “increase in respiratory quotient”.
For calcitonin gene-related peptide [CGRP], the “effect on basal or insulin-stimulated 2-deoxyglucose uptake” value (isolated adipocytes [5]) was “no effect”, the “effect on insulin-stimulated glucose uptake” value (BC3H-1 myocytes) was “significantly inhibited” and the “inhibition of insulin-stimulated GDR” value (anaesthetised rats; CGRP infusion rate 0.005 ug/kg/min) was “no inhibition”. The “inhibition of insulin-stimulated GDR” value (anaesthetised rats; CGRP infusion rate 0.01 ug/kg/min) was “intermediate effect”, the “steady-state glucose infusion rate necessary to maintain euglycemia” value (anaesthetised rats) was 18.0 ± 0.1 mg/kg/min and the “hepatic glucose output (HGO)” value (anaesthetised rats) was 8.0 mg/kg/min. The “suppression of hepatic glucose output (HGO)” value (anaesthetised rats) was 29%, the “rise of GDR above basal” value (anaesthetised rats; [7]) was 7.4 ± 1.6 mg/kg/min and the “mean steady-state glucose infusion rate” value (anaesthetised rats) was 9.9 ± 0.3 mg/kg/min.
With insulin the “increase in rate of glycogen synthesis” value ([3]; 1000 μU/mL insulin added to media) was 3.7 fold, the “steady-state glucose infusion rate necessary to maintain euglycemia” value (anaesthetised rats) was 26.7 ± 0.1 mg/kg/min and the “hepatic glucose output (HGO)” value (anaesthetised rats) was 3.9 ± 2.7 mg/kg/min. The “suppression of hepatic glucose output (HGO)” value (anaesthetised rats) was 69%, the “glucose disposal rate (GDR)” value (anaesthetised rats; FIG. 2B protocol, 3H-glucose, last 20 min of each period, basal GDR 11.2±0.7) was 35.6 ± 1.3 mg/kg/min and the “rise of GDR above basal” value (anaesthetised rats; [7]) was 24 ± 0.9 mg/kg/min. For the same substance, the “mean steady-state glucose infusion rate” value (anaesthetised rats) was 32.3 ± 0.3 mg/kg/min, the “mean steady-state plasma insulin level” value (anaesthetised rats; absence of the CGRP infusion) was 695±105 uU/ml and the “mean steady-state plasma insulin level” value (anaesthetised rats; presence of the CGRP infusion) was 591±86 uU/ml.
For relaxin, the “effect on systolic blood pressure” value [6] is given as “highly effective in reducing systolic blood pressure”.
